Consider 6 molecules from patent publication US9733237B2, “Methods for identifying candidates for the treatment of neurodegenerative diseases” (The Trustees of Columbia University in the City of New York, priority 2012, dated 2017).

Read-outs that look alike come from different tables or passages of the source.

Data set [1] concerns neurons of the pre-Botzinger complex. The settings on record: cited from earlier work.
For data set [2], the system named is SOD1^G93A (ALS) and SOD1^WT mouse embryonic stem cell-derived motor neurons. Briefly: Two-color screen for agents preferentially toxic to ALS motor neurons (mixed WT/G93A ES-MN culture). The settings on record: for Preferential activity on ALS motor neurons: independent pair of WT and G93A lines. Type of data set: cell-based. On the procedure: GFP+ and RFP+ motor neurons were seeded in 96-well plates at equal proportions and imaged using a whole-well imaging platform (Plate Runner HD, Trophos, Marseilles, France). Live cells were scored with an automated image software (Metamorph, Molecular Devices, LLC, Sunnyvale, Calif.) using a neurite outgrowth criterion of five times the cell body diameter. Compounds from a small molecule library (Trophos) were loaded using automated liquid handling, and motor neuron survival was scored at 48 and 72 hours after exposure to stressors.
A survival ratio was calculated by dividing surviving % red cells with green cells for each well (lower left panel). Compounds eliciting ratios greater than 1.6 were considered hits (highlighted in lower left panel).
Multiple ES cell lines from SOD1^G93A mice that had been bred to a reporter strain expressing GFP under the motor neuron-specific Hb9 promoter were generated. ES cells from mice overexpressing wildtype human SOD1 (SOD1^WT) bred to mice expressing a new Hb9::RFP reporter (K. C. Kanning, unpublished) were used as controls. When differentiated in vitro using retinoic acid and an agonist of the sonic hedgehog pathway, these ES cells therefore generated green ALS motor neurons and red controls (FIG. 1A). By mixing these in equal numbers in culture, the response of ALS and control motor neurons to otherwise identical culture conditions could be quantified. This approach would reduce noise due to differences in individual culture wells, seeding density, position in incubator, etc., and that the ratio between numbers of WT and G93A cells would be a sensitive measure of selective vulnerability.
Using this assay miniaturized to a 96-well format, it was confirmed that after 3 days in either the presence or absence of a cocktail of neurotrophic factors, there was only a subtle decrease in ALS motor neuron survival relative to controls. An open-ended screen of the Tocriscreen Mini and Custom collection library of bioactive compounds was therefore performed to identify agents of known mechanism that could selectively induce death of ALS motor neurons. A total of 1,275 compounds were screened initially at a single concentration (10 μM), and those that were deemed too toxic were retested at 1 μM. […] Preferential activity on ALS motor neurons was subsequently confirmed for 4 of the hits using an independent pair of WT and G93A lines (FIG. 1B). The active compounds were: (a) capsaicin, an agonist of the […] receptor that is predominantly expressed on sensory neurons, (b) CPA (cyclopiazonic acid), which is an inhibitor of SERCA (sarco(endo)-plasmic reticulum Ca^++-ATPase) pumps, which sequester Ca^++ into the ER from the cytoplasm in an ATP-dependent manner (FIG. 2A), (c) DH97, a potent MT2 melatonin receptor antagonist, and (d) 2,3-DCPE, a compound that selectively induces apoptosis and downregulates Bcl-xL expression in human cancer vs. normal cells in vitro. The inventors focused on CPA because it induced the most robust change in the WT/G93A ratio (>3 in both combinations of ES lines) and because of the relevance of its mechanism of action to the alterations in Ca^++ handling that are characteristic of ALS motor neurons.
We first asked whether the actions of CPA were direct on motor neurons, or mediated by other cell types present in the mixed culture used for screening. […] Thus, degeneration induced by SERCA inhibition robustly differentiates between SOD1^G93A and SOD1^WT motor neurons. Neither thapsigargin nor CPA has gross effects on neuronal function. […] This provides further support for the notion that the selective effect of SERCA inhibitors on ALS motor neurons is a function of the disease.
A library of small molecule compounds (Tocriscreen Mini & Custom collection, 1275 compounds, or other collections of novel compounds) will be added at a concentration of 10 μM using automated liquid handling. The compounds will be added to the wells following the 20 hour imaging time point. […]

The subject of another data set is SOD1^G93A mice. To be noted: in vivo; cited from earlier work.
Another data set has as its system ES-MNs (G93A and WT). Kind of data set: Fura-2 calcium imaging of Ca++ release from ER stores. Type of data set: cell-based, mouse. The settings on record: 10 μM CPA, 20 minutes. The source says: To explore potential mechanisms underlying the ALS-selective toxicity of CPA, calcium imaging in ES-MNs loaded with the calcium indicator dye Fura-2 was used. In preliminary experiments, rise and fall constants following a 5-second pulse of kainic acid were monitored, and no significant difference between the G93A and WT lines were found (FIG. 2B). […] It was hypothesized that CPA might selectively induce an imbalance in Ca^++ handling. To monitor release of Ca^++ from endoplasmic reticulum (ER) stores, ES-MNs of each genotype were incubated for 20 minutes with 10 μM CPA. An initial rapid increase of Fura-2 signal was followed by a slow recovery, as Ca^++ was sequestered by other routes, out of which mitochondria may be the main compensatory compartment.

As for `C/C=C(/C)C(=O)O[C@H]1C(C)=C2[C@H]([C@@H]1OC(=O)CCCCCCC)[C@@](C)(OC(C)=O)C[C@H](OC(=O)CCC)[C@@]1(O)[C@H]2OC(=O)[C@@]1(C)O` [thapsigargin], the “effect on respiratory rhythm” value in data set [1] is recorded as “do not affect respiratory rhythm”. For the same molecule, in data set [2] (concentrations on the order of 1 nM), the “death of ALS motor neurons relative to controls” value is recorded as 2- to 4 fold.

As to `O=C(/C=C/c1ccccc1)NC(NC(=S)Nc1cccc2cccnc12)C(Cl)(Cl)Cl` (centres unmarked) [Salubrinal], in the data set on SOD1^G93A mice, the “protection in SOD1^G93A mice” value was “protective”. As for `OCCNCCCOc1cccc(Cl)c1Cl` [2,3-DCPE], the “Preferential activity on ALS motor neurons” value in data set [2] is listed as “confirmed”.

Consider `CC(=O)C1=C(O)[C@@H]2[C@H]3c4c[nH]c5cccc(c45)C[C@H]3C(C)(C)N2C1=O` [CPA, cyclopiazonic acid], for which the “effect on respiratory rhythm” value in data set [1] (applied to neurons of the pre-Botzinger complex) is recorded as “do not affect respiratory rhythm”. Also, in data set [2] (7.5 μM, after 48 hours), the “reduction in WT motor neurons numbers” value is listed as 40-50% and the “survival ratio (red WT cells/green mutant cells)” value is listed as 1.6-1.75. For the same molecule, the “change in the WT/G93A ratio” value in data set [2] (both combinations of ES lines) is on record as > 3. In the data set with ES-MNs (G93A and WT), the “G93A cells with greater initial Ca++ release” value is reported as “about 40%”. With `COc1cc(CNC(=O)CCCC/C=C/C(C)C)ccc1O` [capsaicin], the “Preferential activity on ALS motor neurons” value in data set [2] was “confirmed”. On the same count and under the same terms, with `CCCCC(=O)NCCc1c(Cc2ccccc2)[nH]c2ccccc12` [DH97] the entry was “confirmed”.
